# Laboratory results: ChEMBL document CHEMBL4346765, “Design, synthesis and biological evaluation of novel dithiocarbamate-substituted diphenylaminopyrimidine derivatives as BTK inhibitors” (Bioorg Med Chem, 2019)
# Legend:
# Raji = assay: Antiproliferative activity against human Raji cells assessed as reduction in cell growth incubated for 48 hrs by MTS assay
# [1] = target: Tyrosine-protein kinase BTK (Homo sapiens, UniProt Q06187); assay: Inhibition of human recombinant full length BTK expressed in baculovirus in Sf9 insect cells using Poly (4:1 Glu, Tyr) as substrate incubated for 1 hr by ADP-Glo assay
# Ramos = assay: Antiproliferative activity against human Ramos cells assessed as reduction in cell growth incubated for 48 hrs by MTS assay
# Tyrosine-protein kinase BTK, sequence (Q06187 whole entry): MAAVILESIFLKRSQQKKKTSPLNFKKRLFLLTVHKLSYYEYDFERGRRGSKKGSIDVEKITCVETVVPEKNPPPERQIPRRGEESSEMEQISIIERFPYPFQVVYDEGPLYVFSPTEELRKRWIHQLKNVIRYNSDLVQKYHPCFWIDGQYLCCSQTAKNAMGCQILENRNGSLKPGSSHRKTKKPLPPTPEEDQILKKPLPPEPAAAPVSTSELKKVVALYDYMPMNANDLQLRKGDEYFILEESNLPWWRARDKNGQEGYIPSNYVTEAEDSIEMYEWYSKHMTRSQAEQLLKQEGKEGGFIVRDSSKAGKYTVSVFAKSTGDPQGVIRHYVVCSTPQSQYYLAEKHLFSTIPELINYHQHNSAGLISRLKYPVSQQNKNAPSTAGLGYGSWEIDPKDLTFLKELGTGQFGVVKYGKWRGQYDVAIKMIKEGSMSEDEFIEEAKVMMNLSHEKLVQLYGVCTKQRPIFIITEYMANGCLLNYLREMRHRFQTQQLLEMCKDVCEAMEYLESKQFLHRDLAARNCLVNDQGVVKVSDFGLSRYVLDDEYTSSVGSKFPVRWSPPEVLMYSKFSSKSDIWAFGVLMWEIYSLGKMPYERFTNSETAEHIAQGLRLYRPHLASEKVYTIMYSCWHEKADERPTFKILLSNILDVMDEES
IC50 (Raji) [nM],IC50 [1] [nM],IC50 (Ramos) [nM],Structure (SMILES)
15000,386,20600,C=CC(=O)Nc1cccc(Nc2nc(Nc3ccc(OCCSC(=S)N4CCN(c5ccccc5)CC4)cc3)ncc2F)c1
501,7.36,574,C=CC(=O)Nc1cccc(Nc2nc(Nc3ccc(OCCSC(=S)NCc4ccncc4)cc3)ncc2F)c1
13300,91.7,4320,C=CCNC(=S)SCCOc1ccc(Nc2ncc(F)c(Nc3cccc(NC(=O)C=C)c3)n2)cc1
7170,8.21,5940,C=CC(=O)Nc1cccc(Nc2nc(Nc3ccc(OCCSC(=S)NC)cc3)ncc2F)c1
10300,18.5,2670,C=CC(=O)Nc1cccc(Nc2nc(Nc3ccc(OCCSC(=S)NCc4ccccn4)cc3)ncc2F)c1
13700,23.3,3540,C=CC(=O)Nc1cccc(Nc2nc(Nc3ccc(OCCSC(=S)N(CC)CC)cc3)ncc2F)c1
1280,5.68,3220,C=CC(=O)Nc1cccc(Nc2nc(Nc3ccc(OCCSC(=S)NCc4ccc(OC)cc4)cc3)ncc2F)c1
6130,27.1,2290,C=CC(=O)Nc1cccc(Nc2nc(Nc3ccc(OCCSC(=S)N4CC(C)OC(C)C4)cc3)ncc2F)c1 (stereo not given)
10200,35.4,15400,C=CC(=O)Nc1cccc(Nc2nc(Nc3ccc(OCCCCSC(=S)N(C)C)cc3)ncc2F)c1
2220,10.8,1380,C=CC(=O)Nc1cccc(Nc2nc(Nc3ccc(OCCSC(=S)NCc4ccccc4)cc3)ncc2F)c1
